Where a name gives a salt, the structure may show the parent alone. Square brackets hold non-standard residues; d marks the D form. Peptide text beside a SMILES is read from it. * marks the point of attachment. Propyl(2R-PamO,3-PamO) = CCCCCCCCCCCCCCCC(=O)OC[C@H](C*)OC(=O)CCCCCCCCCCCCCCC

The text below walks through data of EP0638588A1, “Derivatives of 6,7-Dihydroxy-4-thiaheptonic acid and their use” (TAKEDA CHEMICAL INDUSTRIES, LTD., priority 1993, dated 1995).

The subject of one series is mice. As to the kind of experiment: Toxicity test, intravenous administration. The series is classed as in vivo. To be noted: intravenous administration at 125 mg/kg. On the procedure: Intravenous administration of trisodium salt of compound 1 at 125 mg/kg caused no death in mice.
The test system of series [1] is bone marrow cells of BALB/c mice. The series is described as follows: Enhancing proliferation of bone marrow cells of mice (MTT reduction method). Type of series: cell-based. To be noted: concentration giving 1.3 or more times the proliferation of the group without test compound; 37°C, 3 days. The method, then: Actions of compound (I) produced in the foregoing Examples on enhancing proliferation of bone marrow cells of mice are shown in Table 2.
To a RPMI 1640 culture medium [Bio-Wittaker Inc. (hereinafter abbreviated as BW), U.S.A.] containing 2 x 10⁶/ml of bone marrow cells of BALB/c mice, 2 mM of L-glutamine, 20 µg/ml of gentamicin (Flow Laboratories, Inc., Scotland), 10% fetal calf serum (BW, U.S.A.) was added a test compound in an adequate concentration, which was incubated at 37°C for 3 days in 5% carbon dioxide in air followed by determination of proliferation of the bone marrow cells by the MTT reduction method [Tada et al., Journal of Immunological Methods, Vol. 93, p.157, 1986].
On the technique in general: Tetrazolium assays rely on reduction of a dye to a coloured formazan, in cell work by metabolically active cells.

The next series concerns leukocytes. The series is described as follows: Enhancing the number of leukocytes in cyclophosphamide-treated mice. The series is classed as in vivo, CDF1/Crj mice. To be noted: percentage relative to mice without cyclophosphamide (100%). The method, then: Six weeks old female CDF1/Crj mice (5 animals per group) were subjected to the experiment. Each animal was orally administered with cyclophosphamide dissolved in physiological saline solution at a dose of 150 mg/kg. From the next day, each animal was administered subcutaneously with the compound suspended in 5% glucose at the following dosage for five days once a day. On the next day after completion of the administration, about 100 µl of peripheral blood was collected from orbital vein using an EDTA-treated glass capillary. Then, the number of leukocytes was counted using an automatic cell analyzer (Sysmex K-2000, Toa Medical Electronics, Japan).

The test system of series [2] is Non adherent bone marrow cells of BALB/c mice. The series is described as follows: Enhancing development of AchE positive cells (fluorescence method). The series is classed as cell-based. The note with it: 10 ng/ml; 37°C, 5 days; AchE activity in the group without compound is shown as 1. An excerpt:
Action of compound (I) on enhancing development of acetylcholine esterase (hereinafter abbreviated as AchE) positive cells are shown in Table 4.
The AchE activity was studied according to a fluorescence method (Ishibashi et al., Proceedings of the National Academy of Science U.S.A., Vol. 86, pp. 5953 to 5957, 1989).
Non adherent bone marrow cells of BALB/c mice (1 x 10⁶ cells/ml) were suspended in Iscove's modification of Dulbecco's medium (Gibco BRL Inc., U.S.A.) containing 1% Neutridoma-SP (Boheringer Mannhaim, Germany). Twenty-five µl of a test compound solution in an adequate concentration was inoculated in a 96-well plate. To each of these solutions in the well was added 100 µl of the non adherent bone marrow cells suspension. After incubation at 37°C for 5 days, 25 µl of 6% glutaraldehyde aqueous solution was added to the well. After standing at 4°C for 30 minutes the mixture was centrifuged (850 x g) at 5°C for 5 minutes and the supernatant was removed. […] To this was added 10 µl of 0.4 mM 7-diethylamino-3-(4'-maleimidylphenyl)-4-methylcoumarin aqueous solution and 100 µl of buffer (pH 5.0) containing 0.2% POPE, 1 mM EDTA and 50 mM sodium acetate and fluorescence emission was determined on a fluorometer (excitation wave length: 365 nm, fluorescence wave length: 450 nm).

For the compound `CCCCCCCCCCCCCCCC(=O)OC[C@H](CSC[C@H](NC(=O)CN)C(=O)N[C@@H](CCC(=O)O)C(=O)NCC(=O)N[C@H](CCC(=O)O)C(=O)O)OC(=O)CCCCCCCCCCCCCCC` [trisodium salt of compound 1] (H-GC(Propyl(2R-PamO,3-PamO))EG[dE]-OH), the death entry with mice was “no death”. `CCCCCCCCCCCCCCCC(=O)OC[C@H](CSC[C@H](NC(=O)CN)C(=O)N[C@@H](CCC(=O)O)C(=O)NCC(=O)N[C@H](CCC(=O)O)C(=O)O)OC(=O)CCCCCCCCCCCCCCC` [Compound 1, (2R,6R)-2-(H-Gly-amino)-6,7-bis(PamO)-4-THT-Glu-Gly-D-Glu-OH] (H-GC(Propyl(2R-PamO,3-PamO))EG[dE]-OH): the “Minimal Effective Concentration (MEC, ng/ml)” value in series [1] is 6.25 ng/mL. Also, the Number of leukocytes in the series with leukocytes (0.50 mg/kg/day subcutaneously for 5 days after oral cyclophosphamide 150 mg/kg) amounted to 137%. Moreover, in series [2], the “Degree of AchE Positive Cell” value is 1.92. With `CCCCCCCCCCCCCCCC(=O)OC[C@H](CSC[C@H](NC(=O)CNC(=O)[C@@H](N)CCC(=O)O)C(=O)N[C@@H](CCC(=O)O)C(=O)NCC(=O)N[C@H](CCC(=O)O)C(=O)O)OC(=O)CCCCCCCCCCCCCCC` [Compound 4, (2R,6R)-2-(H-Glu-Gly-amino)-6,7-bis(PamO)-4-THT-Glu-Gly-D-Glu-OH] (H-EGC(Propyl(2R-PamO,3-PamO))EG[dE]-OH), the Number of leukocytes with leukocytes (0.13 mg/kg/day subcutaneously for 5 days after oral cyclophosphamide 150 mg/kg) was 108%. As for `CCCCCCCCCCCCCCCC(=O)OC[C@H](CSC[C@H](NC(=O)[C@@H](N)Cc1ccc(O)cc1)C(=O)N[C@@H](CCC(=O)O)C(=O)NCC(=O)N[C@H](CCC(=O)O)C(=O)O)OC(=O)CCCCCCCCCCCCCCC` [Compound 5, (2R,6R)-2-(H-Tyr-amino)-6,7-bis(PamO)-4-THT-Glu-Gly-D-Glu-OH] (H-YC(Propyl(2R-PamO,3-PamO))EG[dE]-OH), the “Minimal Effective Concentration (MEC, ng/ml)” value in series [1] amounted to 6.25 ng/mL.
